We go through one compound from US20220370636A1, “NICOTINAMIDE ADENINE DINUCLEOTIDE ACTIVATOR AND USE THEREOF” (University of South Florida, priority 2021, published 2022).

The subject of one series is db/db mice. The series can be described thus: Skeletal muscle histology, TEM, SDH staining and mtDNA copy number in db/db mice. It is filed as in vivo. Here is the method: Haematoxylin and eosin staining. The tibialis anterior (TA) muscle was dissected from the mice, and embedded in optimal cutting temperature (OCT), frozen in isopentane chilled in liquid nitrogen and stored at […]. […] Images were obtained at ×10 and ×20 magnifications with the Olympus IX73 inverted microscope and were quantified using CellSens Standard software (Olympus Soft Imaging Solution, USA).
Transmission electron microscopy. The EDL muscles were fixed with 2.5% glutaraldehyde in 0.1 M sodium phosphate buffer for 2 h at RT, and overnight at 4° C., followed by washing in buffer and fixation with 1% osmium tetroxide in buffer for 2 h at 4° C. After rinsing in buffer, the samples were then dehydrated in ethanol and acetone at RT and infiltrated in acetone:pure resin (Embed812) mix in vacuum with desiccant for 1 h and in pure resin for 4 h and embedded in the embedding mix. Polymerization of the embedding mix was carried out overnight at 70° C. in the embedding moulds. Semithin (1 μm) and ultrathin (70 nm) sections were cut using a Reichert Ultracut microtome machine. The sections were then stained with 2% uranyl acetate and contrasted with lead citrate as per standard protocol. Images were taken at ×15,000, ×30,000, and ×50,000 magnifications with a JOEL1400 transmission electron microscope for the analysis of myofibre diameter and the mitochondrial area.
Mitochondrial DNA (mtDNA) copy number. Total DNA was extracted from gastrocnemius (GAS) muscle using DNeasy Blood and Tissue kit (Qiagen, Md., USA) according to the manufacturer's protocol. The quantitative real-time PCR (qPCR) analysis of the mtDNA/nDNA was performed using iTaq Universal SYBR green supermix (Bio-Rad Laboratories, CA, USA). The mouse 16S was used as the mitochondrial gene and HK2 was used as the nuclear gene to obtain the mitochondrial copy number.
Succinate dehydrogenase staining. The 10 μm thick transverse cryosections of TA muscles were cut at the mid-belly region using Leica CM 1860 AgProtect cryostat machine. Briefly, the tissue sections were air-dried for 45 minutes, and incubated in 50 mM sodium succinate dibasic hexahydrate and 1.25 mM nitroblue tetrazolium in 0.1 M phosphate buffer (Sigma-Aldrich, MO, USA) for 30 min. The reaction was stopped washing in deionized water, and the sections were dehydrated in a series of graded ethanol and cleared using xylene. The sections were then mounted with DPX mountant, and the images were captured at ×20 magnification of the Olympus IX73 inverted microscope using CellSens Standard software (Olympus Soft Imaging Solution, USA) and the succinate dehydrogenase (SDH) positive myofibres were quantified with ImageJ software.

The test system of another series is C2C12 cells. Description: MTT cytotoxicity study in C2C12 cells. It is filed as cell-based, mouse. Here is the method: Cytotoxicity study. The cytotoxicity of P7C3 nanoparticles (P7C3 NP), and the skeletal muscle-specific aptamer-based targeted P7C3 nanoparticles (P7C3 NP Apt) were determined using the MTT assay in C2C12 cells and was compared with the P7C3 solution, DMSO and control media. Briefly, the mouse C2C12 myoblasts were seeded at a seeding density of 10,000 cells/well in three 96-well plates (Corning, N.Y., USA) in 100 μl of growth medium, i.e., DMEM F12 supplemented with 10% FBS, and 1% P/S and were allowed to grow for 24, 48, and 72 h after an initial attachment period of 24 h, which was considered as time 0. […] The 0 nM concentration had the solvent vehicle control DMSO, in which the drugs P7C3, 7C3 NPs, and P7C3 NPs Apt were dissolved. The MTT reagent solution (1 mg/mL) was added to each well after 24, 48, and 72 h of cell proliferation and the assay was performed according to the manufacturer's protocol (Thermo Fisher Scientific CyQUANT™ MTT Cell Viability Assay kit, USA). The spectrophotometer reading was measured at 540 nm wavelength using a Synergy H1 Hybrid Multi-Mode Reader. Cell viability was calculated and plotted, considering the optical density of solvent vehicle control DMSO wells as 100% viable.

The nature of series [1]: In vitro drug release by membrane dialysis. The conditions noted are these: PBS pH 7.4, 37° C.
Experimental: In vitro Drug Release. Membrane dialysis method was used to investigate the drug release profile of P7C3 from the NPs. A 0.5 mL sample volume of aptamer conjugated, and non-conjugated P7C3 NPs was filled in dialysis cassettes (MWCO 14 KDa) and placed in 50 mL of PBS (pH 7.4) release medium with stirring at 100 rpm and temperature of 37° C. At predetermined time intervals, 1 mL sample volume of release media was removed, and the release study was continued for 7 days.
For another series, the system named is RAW264.7 cells. The series can be described thus: Morphology and number of activated cells in LPS-induced RAW264.7 macrophage. The format is cell-based. The conditions noted are these: LPS 1 μg/ml + P7C3 1 μM. Here is the method: FIGS. 3A-3E show morphology and number of activated cells in LPS-induced RAW264.7 macrophage in vitro. RAW264.7 cells were cultured in complete medium (FIG. 3A) or contained with P7C3 (FIG. 3B, 1 μM), LPS (FIG. 3C, 1 μg/ml), and LPS+P7C3 (FIG. 3D) for […]. The photo was taken under inverted microscopy (Rebel, ECHO) at 20× mag. The elongated and pseudopod shape of cells were considered as activated (yellow star), but the small and round shape of cells was considered as inactivated (yellow arrow). […] The statistical analysis was performed using two-way ANOVA with Tukey's multiple comparisons test in GraphPad Prism 8.4.3, and p≤0.05 was considered statistically significant.

In the next series the test system is NF-κB. The series can be described thus: Luciferase assay in TNF-α inflamed C2C12/NF-κB reporter cells. The format is cell-based, mouse. Conditions: 100 and 500 nM, and 1 μM; 24 hours; 10 ng/mL TNF-α; vs DMSO+TNF-α. Here is the method: Cell culture and Luciferase assay. The C2C12/NF-κB reporter cells were grown in DMEM supplemented with 10% FBS and 1% penicillin/streptomycin. Puromycin selection of the cells was performed by adding 2 μg/mL to the media, and the C2C12 cells with the NF-κB reporter gene were selected for further culturing. Cells were plated at 40,000 cells per well for the initial seeding density using a 24-well format. To induce inflammation, TNF-α was added at a concentration of 10 ng/mL, and simultaneously, the cells were treated with the vehicle control (DMSO or blank NPs), P7C3 solution, and P7C3 NPs. […] After 24 hours, the luciferase assay was conducted per manufacturer protocol (Promega Luciferase Assay System, USA). Using a Synergy H1 Hybrid Multi-Mode Reader, the luminescence of the cell lysate in the opaque 96-well plate was measured. Protein in the cell lysates was measured using a Pierce™ 660 nm protein assay. The luciferase activity was calculated after normalization with protein concentration.

[2] abbreviates: tibialis anterior, H&E, vs db-Veh.

Take `OC(CNc1ccccc1)Cn1c2ccc(Br)cc2c2cc(Br)ccc21` (stereo not drawn) [P7C3, 3,6-Dibromo-a-[(phenylamino)methyl]-9H-carbazole-9-ethanol]: the SDH positive myofibres result in the series with db/db mice (TA muscle, 4 weeks) is “significantly improved”. Further, the “mitochondria morphology and function” value in the series on db/db mice (TEM, db/db) is given as “improved”. Besides, in the series with db/db mice (TEM, vs db-Veh), the “myofibre diameter of the extensor digitorum longus muscle” value is “increase”. In the series with db/db mice (gastrocnemius, vs db-Veh), the “16S expression (mtDNA)” value is “significantly decreased”. Further, in the series on db/db mice (setting [2]), the “medium and larger sized myofibres cross-sectional areas” value is recorded as “increase”; the “small myofibres cross-sectional areas (0-1500 μm^2)” value is recorded as “significant decrease”. Besides, the “cytotoxicity (MTT cell viability)” value with C2C12 cells (0, 10, 500, 1000 nM, 24, 48, 72 h) is listed as “not toxic”. Moreover, in the series on C2C12 cells (10 nM, 72 h, vs control cells), the cell viability result is listed as “significantly higher”. Besides, the “cumulative drug release at day 1 (24 h)” value in series [1] worked out at 100%. In addition, the “number of activated RAW264.7 cells” value in the series on RAW264.7 cells (vs LPS) is “significantly decreased”. In the series on RAW264.7 cells (vs LPS group), the “non-activated RAW264.7 cells” value is on record as “significantly higher”. In addition, in the series on NF-κB, the “NF-κB activity (luciferase)” value is recorded as “significant decrease”.
